Reference: patent publication US4427661A, “Fluorinated cyclic hexapeptide somatostatin analogs” (Merck & Co., Inc., priority 1982, dated 1984)

What was measured:
[1] = tested on: growth hormone release; test: Growth Hormone--in vitro: growth hormone release inhibition in cultured rat pituitary cells; format: cell-based; conditions: multiples or fractions of the effect of somatostatin (=1), 4 hours incubation
Procedure: Rat pituitaries were isolated according to the procedures of Vale and Grant "In vitro Pituitary Hormone Secretion Assay for Hypophysioprivic Substances" in Methods in Enzymology. Vol.XXXVII,eds. O'Malley, B. W. and Hardman, J. G. (Academic Press, Inc., New York) pp. 5-93 (1975).
After 4 days in culture, the cells were washed and incubated for 4 hours in Dulbecco modified Eagle's medium in the presence or absence of graded doses of each analog or somatostatin. The medium was then collected for subsequent growth hormone determination by a double antibody radioimmunoassay for rat growth hormone.

[2] = tested on: insulin; test: Insulin inhibition in vivo: portal vein insulin in anesthetized rats; parameters: species or system rat; conditions: multiples or fractions of the effect of somatostatin (=1), via external jugular vein, portal vein blood after 5 minutes
Procedure: Analogs of somatostatin were compared to somatostatin in their ability to decrease the levels of portal vein glucagon and insulin in anesthetized rats. Male Sprague-Dawley rats (Charles River CD) weighing 160-200 g were anethetized with urethane (150 mg/100 g of body weight; Aldrich). Saline or peptides were administered via the external jugular vein. After 5 minutes, the portal vein was exposed, and blood was collected via syringe containing 3 mg of EDTA and placed in chilled tubes containing 100 μl of Trasylol (FBA Pharmaceuticals) for subsequent hormone analysis. Plasma levels of glucagon were determined by the method of Faloona and Unger, Methods of Hormone Radioimmunoassay, Jaffe and Behrman (Eds), Academic Press, New York, Vol. II, pp. 257-527 (1976), utilizing glucagon antisera 30K obtained from R. Unger (Dallas, Tx). Plasma levels of insulin were determined by a modification of the procedure of Herbert et al., J. Clin. Endocrinol. Metab., 25, 1375-1384 (1965).

[3] = tested on: pentagastrin evoked gastric secretion; test: Inhibition of pentagastrin evoked gastric secretion in the chronic fistula dog; format: in vivo; conditions: Dose 0.8 μg/ml./min., infusion 0-60 min, relative to placebo trial
Procedure: Compounds were tested for their ability to inhibit pentagastrin evoked gastric secretion in the chronic fistula dog. Female beagle dogs with a chronic gastric fistula were given pentagastrin (2.5 μg./kg./hour, i.v. from -60 to 120 min.) and gastric outputs were collected via the fistula cannula. Samples were analyzed at 30 minute intervals for volume (ml.) and titratable acid (mEq/L) (Titration to pH 7 with 0.01 N NaOH); total acid output (mEq) was calculated as the production of output volume and acid concentration. Test compounds were infused at a constant rate from 0 to 60 minutes. Data have been expressed as percent change of total acid output relative to a placebo trial in the same animals.

C[C@H](N)C(=O)NCC(=O)N[C@H]1CSSC[C@@H](C(=O)O)NC(=O)[C@H](CO)NC(=O)[C@H]([C@@H](C)O)NC(=O)[C@H](Cc2ccccc2)NC(=O)[C@H]([C@@H](C)O)NC(=O)[C@H](CCCCN)NC(=O)[C@H](Cc2c[nH]c3ccccc23)NC(=O)[C@H](Cc2ccccc2)NC(=O)[C@H](Cc2ccccc2)NC(=O)[C@H](CC(N)=O)NC(=O)[C@H](CCCCN)NC1=O [Somatostatin]
Growth Hormone Release Inhibition In Vitro [1]: 1 | Insulin Inhibition In Vivo [2]: 1 | Gastric Secretion % Inhibition Acid Concentration 0-30 ([3]; interval 0-30 min): 16% | Gastric Secretion % Inhibition Vol. 0-30 ([3]; interval 0-30 min): 85% | Gastric Secretion % Inhibition Acid Concentration 30-60 ([3]; interval 30-60 min): 77% | Gastric Secretion % Inhibition Vol. 30-60 ([3]; interval 30-60 min): 97% | Gastric Secretion % Inhibition Acid Concentration 60-90 ([3]; interval 60-90 min): 61% | Gastric Secretion % Inhibition Vol. 60-90 ([3]; interval 60-90 min): 81% | Gastric Secretion % Inhibition Acid Concentration 90-120 ([3]; interval 90-120 min): 14% | Gastric Secretion % Inhibition Vol. 90-120 ([3]; interval 90-120 min): 37%
